Experimental data as given in patent US20050272040A1, “Method for increasing synaptic growth or plasticity” (priority 2002, published 2005).

Test system: individual hippocampal cells
Test: Single-cell Arc expression (aRNA amplification, real-time RT-PCR) after patch-clamp
Format: cell-based, rat
Settings: BDNF-treated cells, electrophysiologic responders (n=7) vs non-responders (n=9), p<0.05
Protocol: FIG. 1A presents Arc expression in individual BDNF-treated cells following electrophysiological recordings and aRNA amplification. Arc transcription was measured by real-time RT-PCR and then normalized to internal GAPDH levels. The data are then expressed as a ratio of the average Arc expression in the seven control cells (expression ratio). FIG. 1B presents a correlation of Arc expression ratios to individual cell's synaptic BDNF responses. Average synaptic charge 3 to 5 minutes post-BDNF exposure expressed as a fold increase over baseline (−2 to 0 minute) was plotted against Arc expression ratios shown in FIG. 1A. Each circle represents one BDNF-treated cell. The cell number next to the circle corresponds with the cell number in FIG. 1A. Dashed line depicts a correlation coefficient indicating significance (r=0.66., p<0.005). The data are categorized into two groups of BDNF-treated cells: a cluster of non-responders (shaded) and a spread of responders (clear).
The molecular genetics of differential synaptic responses to BDNF was examined by performing single-cell transcriptional analysis after whole-cell patch-clamp. […] FIG. 1A represents Arc expression in cells exposed to BDNF relative to the average Arc expression in cells not exposed to BDNF (control) as assessed by real-time RT-PCR (expression ratio). […]

BDNF: neurotrophin, 50 ng/ml, Preprotech; induces synaptic plasticity in hippocampal neurons
Increase in Arc expression, responders relative to non-responders: 17 fold
